Test results from patent US20260262643A1, “HERBICIDAL BENZOXAZINES” (FMC CORPORATION, priority 2022, published 2026).

Assays:
barnyardgrass [1] = experiment: Test C preemergence; assay type: in vivo, Echinochloa crusgalli
Outline: (§1)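 Test material, in non-phytotoxic solvent with surfactant, was sprayed on the soil directly after seeding (preemergence) or on young plants of 2–10 cm with one to two leaves (postemergence). Greenhouse, 10 days; 0–100 visual control scale.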

sedge, umbrella = experiment: Test D flooded paddy test; assay type: in vivo, Cyperus difformis; conditions: 250 g ai/ha, applied to paddy water, visual rating after 13 to 14 days, scale 0 to 100 (0 no effect, 100 complete control)
Outline: (§2)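 At the 2-leaf stage, floodwater 3 cm deep received the test compound; that depth persisted throughout. Plants scored visually 13 to 14 days on, 0 (no effect) to 100 (complete control), dash indicating no result.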

corn [2] = experiment: Test C preemergence; assay type: in vivo, Zea mays
Outline: as §1

wheat [3] = experiment: Test C postemergence; assay type: in vivo, Triticum aestivum; conditions: 10 days, 0 to 100 scale (0 no effect, 100 complete control)
Outline: as §1

oat, wild [4] = experiment: Test C postemergence; assay type: in vivo, Avena fatua; conditions: 10 days, 0 to 100 scale (0 no effect, 100 complete control)
Outline: as §1

ryegrass, Italian [5] = experiment: Test C postemergence; assay type: in vivo, Lolium multiflorum; conditions: 10 days, 0 to 100 scale (0 no effect, 100 complete control)
Outline: as §1

pigweed, palmer [6] = experiment: Test C preemergence; assay type: in vivo, Amaranthus palmeri
Outline: as §1

ragweed [7] = experiment: Test C postemergence; assay type: in vivo, Ambrosia artemisiifolia; conditions: 10 days, 0 to 100 scale (0 no effect, 100 complete control)
Outline: as §1

horseweed = experiment: Test C postemergence; assay type: in vivo, Erigeron canadensis; conditions: 10 days, 0 to 100 scale (0 no effect, 100 complete control)
Outline: as §1

wheat [8] = experiment: Test C preemergence; assay type: in vivo, Triticum aestivum
Outline: as §1

ragweed [9] = experiment: Test C preemergence; assay type: in vivo, Ambrosia artemisiifolia
Outline: as §1

ryegrass, Italian [10] = experiment: Test C preemergence; assay type: in vivo, Lolium multiflorum
Outline: as §1

corn [11] = experiment: Test C postemergence; assay type: in vivo, Zea mays; conditions: 10 days, 0 to 100 scale (0 no effect, 100 complete control)
Outline: as §1

green foxtail [12] = experiment: Test C postemergence; assay type: in vivo, Setaria viridis; conditions: 10 days, 0 to 100 scale (0 no effect, 100 complete control)
Outline: as §1

blackgrass [13] = experiment: Test C preemergence; assay type: in vivo, Alopecurus myosuroides
Outline: as §1

kochia [14] = experiment: Test C postemergence; assay type: in vivo, Bassia scoparia; conditions: 10 days, 0 to 100 scale (0 no effect, 100 complete control)
Outline: as §1

ducksalad = experiment: Test D flooded paddy test; assay type: in vivo, Heteranthera limosa; conditions: 250 g ai/ha, applied to paddy water, visual rating after 13 to 14 days, scale 0 to 100 (0 no effect, 100 complete control)
Outline: as §2

barnyardgrass [15] = experiment: Test C postemergence; assay type: in vivo, Echinochloa crusgalli; conditions: 10 days, 0 to 100 scale (0 no effect, 100 complete control)
Outline: as §1

pigweed, palmer [16] = experiment: Test C postemergence; assay type: in vivo, Amaranthus palmeri; conditions: 10 days, 0 to 100 scale (0 no effect, 100 complete control)
Outline: as §1

rice = experiment: Test D flooded paddy test; assay type: in vivo, Oryza sativa; conditions: 250 g ai/ha, applied to paddy water, visual rating after 13 to 14 days, scale 0 to 100 (0 no effect, 100 complete control)
Outline: as §2

galium = experiment: Test C postemergence; assay type: in vivo, Galium aparine; conditions: 10 days, 0 to 100 scale (0 no effect, 100 complete control)
Outline: as §1

soybean [17] = experiment: Test C preemergence; assay type: in vivo, Glycine max
Outline: as §1

green foxtail [18] = experiment: Test C preemergence; assay type: in vivo, Setaria viridis
Outline: as §1

oat, wild [19] = experiment: Test C preemergence; assay type: in vivo, Avena fatua
Outline: as §1

kochia [20] = experiment: Test C preemergence; assay type: in vivo, Bassia scoparia
Outline: as §1

soybean [21] = experiment: Test C postemergence; assay type: in vivo, Glycine max; conditions: 10 days, 0 to 100 scale (0 no effect, 100 complete control)
Outline: as §1

barnyardgrass [22] = experiment: Test D flooded paddy test; assay type: in vivo, Echinochloa crus-galli; conditions: 250 g ai/ha, applied to paddy water, visual rating after 13 to 14 days, scale 0 to 100 (0 no effect, 100 complete control)
Outline: as §2

blackgrass [23] = experiment: Test C postemergence; assay type: in vivo, Alopecurus myosuroides; conditions: 10 days, 0 to 100 scale (0 no effect, 100 complete control)
Outline: as §1

[24] = 500 g ai/ha, preemergence, 0 to 100 scale (0 no effect, 100 complete control)
[25] = Preemergence, 125 g ai/ha, 0 to 100 scale, 0 no effect, 100 complete control

## Cc1ccc(-n2cnc(C#N)n2)cc1C(=O)N1C[C@H](C)Oc2c(Cl)cccc21 [Compound 363]
Barnyardgrass [1]; [24]
  Barnyardgrass plant response rating: 60
Barnyardgrass [1]; [25]
  Plant response rating, Barnyardgrass: 40
sedge, umbrella
  Plant response rating, Sedge, Umbrella (Flood): 0
Corn [2]; [24]
  Corn plant response rating: 0
Corn [2]; [25]
  Plant response rating, Corn: 0
Wheat [3]; 500 g ai/ha, postemergence
  Plant response rating, Wheat: 20
Wheat [3]; Postemergence, 125 g ai/ha
  Plant response rating, Wheat: 20
oat, wild [4]; 500 g ai/ha, postemergence
  Plant response rating, Oat, Wild: 20
oat, wild [4]; Postemergence, 125 g ai/ha
  Plant response rating, Oat, Wild: 0
ryegrass, Italian [5]; 500 g ai/ha, postemergence
  Plant response rating, Ryegrass, Italian: 50
ryegrass, Italian [5]; Postemergence, 125 g ai/ha
  Plant response rating, Ryegrass, Italian: 40
pigweed, palmer [6]; [24]
  Pigweed, Palmer plant response rating: 100
pigweed, palmer [6]; [25]
  Plant response rating, Pigweed, Palmer: 80
Ragweed [7]; 500 g ai/ha, postemergence
  Plant response rating, Ragweed: 50
Ragweed [7]; Postemergence, 125 g ai/ha
  Plant response rating, Ragweed: 0
horseweed; 500 g ai/ha, postemergence
  Plant response rating, Horseweed: 0
horseweed; Postemergence, 125 g ai/ha
  Plant response rating, Horseweed: 0
Wheat [8]; [24]
  Wheat plant response rating: 0
Wheat [8]; [25]
  Plant response rating, Wheat: 0
Ragweed [9]; [24]
  Ragweed plant response rating: 80
Ragweed [9]; [25]
  Plant response rating, Ragweed: 20
ryegrass, Italian [10]; [24]
  Ryegrass, Italian plant response rating: 70
ryegrass, Italian [10]; [25]
  Plant response rating, Ryegrass, Italian: 30
Corn [11]; 500 g ai/ha, postemergence
  Plant response rating, Corn: 10
Corn [11]; Postemergence, 125 g ai/ha
  Plant response rating, Corn: 10
Green foxtail [12]; 500 g ai/ha, postemergence
  Plant response rating, Foxtail, Green: 50
Green foxtail [12]; Postemergence, 125 g ai/ha
  Plant response rating, Foxtail, Green: 30
Blackgrass [13]; [24]
  Blackgrass plant response rating: 30
Blackgrass [13]; [25]
  Plant response rating, Blackgrass: 0
Kochia [14]; 500 g ai/ha, postemergence
  Plant response rating, Kochia: 80
Kochia [14]; Postemergence, 125 g ai/ha
  Plant response rating, Kochia: 40
ducksalad
  Plant response rating, Ducksalad (Flood): 0
Barnyardgrass [15]; 500 g ai/ha, postemergence
  Plant response rating, Barnyardgrass: 50
Barnyardgrass [15]; Postemergence, 125 g ai/ha
  Plant response rating, Barnyardgrass: 20
pigweed, palmer [16]; 500 g ai/ha, postemergence
  Plant response rating, Pigweed, Palmer: 90
pigweed, palmer [16]; Postemergence, 125 g ai/ha
  Plant response rating, Pigweed, Palmer: 70
rice
  Plant response rating, Rice (Flood): 0
galium; 500 g ai/ha, postemergence
  Plant response rating, Galium: 100
galium; Postemergence, 125 g ai/ha
  Plant response rating, Galium: 100
Soybean [17]; [24]
  Soybean plant response rating: 0
Soybean [17]; [25]
  Plant response rating, Soybean: 20
Green foxtail [18]; [24]
  Foxtail, Green plant response rating: 100
Green foxtail [18]; [25]
  Plant response rating, Foxtail, Green: 100
oat, wild [19]; [24]
  Oat, Wild plant response rating: 0
oat, wild [19]; [25]
  Plant response rating, Oat, Wild: 0
Kochia [20]; [24]
  Kochia plant response rating: 0
Kochia [20]; [25]
  Plant response rating, Kochia: 0
Soybean [21]; 500 g ai/ha, postemergence
  Plant response rating, Soybean: 100
Soybean [21]; Postemergence, 125 g ai/ha
  Plant response rating, Soybean: 100
Barnyardgrass [22]
  Plant response rating, Barnyardgrass (Flood): 0
Blackgrass [23]; 500 g ai/ha, postemergence
  Plant response rating, Blackgrass: 60
Blackgrass [23]; Postemergence, 125 g ai/ha
  Plant response rating, Blackgrass: 30
